We go through 27 compounds from patent publication US8697709B2, “Fused ring heteroaryl kinase inhibitors” (The Regents of the University of California, priority 2008, dated 2014).

Type in all cases: biochemical
The target of one assay is T1, Abl (Homo sapiens, UniProt P00519).
T1 sequence (P00519 242-493 limits assumed): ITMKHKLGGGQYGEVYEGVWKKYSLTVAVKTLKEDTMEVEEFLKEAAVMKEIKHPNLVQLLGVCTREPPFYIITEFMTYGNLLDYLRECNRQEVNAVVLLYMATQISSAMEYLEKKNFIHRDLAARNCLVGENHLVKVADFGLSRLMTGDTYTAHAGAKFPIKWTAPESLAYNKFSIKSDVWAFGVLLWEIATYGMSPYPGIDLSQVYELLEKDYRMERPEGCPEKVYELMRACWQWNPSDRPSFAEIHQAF
Nature of the assay: In vitro kinase assay (32P peptide phosphorylation), WT Abl. The note with it: read-out: IC50 WT Abl.

The target of a further assay is c-Src (Gallus gallus, UniProt P00523). As to the kind of experiment: In vitro kinase assay (32P peptide phosphorylation), WT Src.
A further assay has as its target T338G Src (Gallus gallus, UniProt P00523, T338G). Nature of the assay: In vitro kinase assay, T338G Src. The procedure: (§1) Kinase reactions were initiated by the addition of […] cold ATP supplemented with 5 mCi γ^32P ATP and allowed to proceed at room temperature (RT). At 10 minutes […] of the reactions were spotted onto phosphocellulose sheets (P81, Whatman) and subsequently soaked in wash buffer (1.0% (v/v) phosphoric acid). The sheets were washed five times in buffer, dried, and transferred radioactivity was measured by phosphorimaging using a TyphoonTM scanner (Molecular Dynamics). Radioactive counts were quantified using ImageQuantTM software, and titration data were fit to a sigmoidal dose response to derive IC50 values using the Prism® software package. Dose responses were based on a 12 point inhibitor titration, using 1⁄3 dilutions starting from […]. Experiments were completed 2-4 times to derive mean values.

In a further assay the target is T2, T315A Abl (Homo sapiens, UniProt P00519, T315A).
T2 sequence (P00519 242-493 T315A limits assumed): T1 sequence (P00519 242-493 limits assumed) with T74A
As to the kind of experiment: In vitro kinase assay, T315A Abl. The note with it: Table 1a. The protocol: as §1

The mark [1] stands for this setting: Table 1a, read-out: IC50 WT Src.
Where [2] appears, read: Table 1b, read-out: IC50 WT Src.

Positions count from the first letter of the chain named. Read-outs that look alike come from different tables or passages of the source. Some results are limits rather than exact numbers.

In the case of `CC(C)(C)OC(=O)N1CC[C@H](n2nc(-c3ccc(NC(=O)Nc4cccc(C(F)(F)F)c4)cc3)c3c(N)ncnc32)C1` [AD78, (S)-tert-butyl 3-(4-amino-3-(4-(3-(3-(trifluoromethyl)phenyl)ureido)phenyl)-1H-pyrazolo[3,4-d]pyrimidin-1-yl)pyrrolidine-1-carboxylate], the half-inhibitory concentration (IC50) at Abl (Table 1a) was 1000 to 5000 nM; on c-Src (setting [1]), < 1000 nM.

In the case of `Nc1ncnc2c1c(-c1ccc(NC(=O)c3cccc(C(F)(F)F)c3)cc1)nn2[C@@H]1CCNC1` [AD72, N-(4-(4-amino-1-((R)-pyrrolidin-3-yl)-1H-pyrazolo[3,4-d]pyrimidin-3-yl)phenyl)-3-(trifluoromethyl)benzamide], the IC50 on Abl (Table 1b) and on c-Src (setting [2]) was > 5000 nM each time.

For `Cn1nc(Cc2cccc(NC(=O)c3cccc(C(F)(F)F)c3)c2)c2c(N)ncnc21` [AD15], the half-maximal inhibitory concentration (IC50) on T338G Src (Table 1a) was 1000 to 5000 nM; at c-Src (setting [1]), > 5000 nM; against T315A Abl, < 1000 nM.

`Nc1ncnc2c1c(Cc1cccc(NC(=O)Nc3cccc(C(F)(F)F)c3)c1)nn2Cc1ccccc1` [BB6, 1-(3-((4-amino-1-benzyl-1H-pyrazolo[3,4-d]pyrimidin-3-yl)methyl)phenyl)-3-(3-(trifluoromethyl)phenyl)urea]: the half-maximal inhibitory concentration (IC50) at T338G Src (Table 1a) was 1000 to 5000 nM; on c-Src (setting [1]), 1000 to 5000 nM; against T315A Abl it was < 1000 nM.

In the case of `Nc1ncnc2c1c(Cc1cccc(NC(=O)c3cccc(C(F)(F)F)c3)c1)nn2CC1CC1` [BB13], the results for the IC50 against T338G Src (Table 1a), on c-Src (setting [1]) and against T315A Abl were < 1000 nM, > 5000 nM and < 1000 nM, respectively.

As to `Nc1ncnc2c1c(-c1ccc(NC(=O)Nc3cccc(C(F)(F)F)c3)cc1)nn2CCCO` [AD64, 1-(4-(4-amino-1-(3-hydroxypropyl)-1H-pyrazolo[3,4-d]pyrimidin-3-yl)phenyl)-3-(3-(trifluoromethyl)phenyl)urea], the IC50 was > 5000 nM on Abl (Table 1b) and < 1000 nM at c-Src (setting [2]).

Turning to `Nc1ncnc2c1c(-c1ccc(NC(=O)c3cccc(C(F)(F)F)c3)cc1)nn2CCCO` [AD65, N-(4-(4-amino-1-(3-hydroxypropyl)-1H-pyrazolo[3,4-d]pyrimidin-3-yl)phenyl)-3-(trifluoromethyl)benzamide], the IC50 on Abl (Table 1b) and on c-Src (setting [2]) was > 5000 nM each time.

With `CC(C)n1nc(Cc2cccc(NC(=O)c3cccc(C(F)(F)F)c3)c2)c2c(N)ncnc21` [AD35], the IC50 is 1000 to 5000 nM at T338G Src (Table 1a), > 5000 nM on c-Src (setting [1]) and < 1000 nM against T315A Abl.

In the case of `CC(C)n1nc(-c2cccc(NC(=O)Nc3cccc(C(F)(F)F)c3)c2)c2c(N)ncnc21` [AD53], the half-inhibitory concentration (IC50) against T338G Src (Table 1b) is < 1000 nM; at c-Src (setting [2]), 1000 to 5000 nM.

For `Nc1ncnc2c1c(-c1ccc(NC(=O)c3cccc(C(F)(F)F)c3)cc1)nn2[C@H]1CCOC1` [AD67, N-(4-(4-amino-1-((S)-tetrahydrofuran-3-yl)-1H-pyrazolo[3,4-d]pyrimidin-3-yl)phenyl)-3-(trifluoromethyl)benzamide], the IC50 on Abl (Table 1b) is 1000 to 5000 nM; on c-Src (setting [2]), < 1000 nM.

In the case of `CC(C)(C)n1nc(Cc2cccc(NC(=O)Nc3cccc(C(F)(F)F)c3)c2)c2c(N)ncnc21` [AD26, 1-(3-((1-tert-butyl-4-amino-1H-pyrazolo[3,4-d]pyrimidin-3-yl)methyl)phenyl)-3-(3-(trifluoromethyl)phenyl)urea], the IC50 was < 1000 nM at Abl (Table 1a); < 1000 nM against T338G Src (Table 1a); < 1000 nM at c-Src (setting [1]); 480 nM at c-Src (unphosphorylated kinase domain, 100 mM ATP, read-out: IC50 for c-Src); < 1000 nM on T315A Abl.

For `CC(C)(C)OC(=O)N1CC[C@@H](n2nc(-c3ccc(NC(=O)Nc4cccc(C(F)(F)F)c4)cc3)c3c(N)ncnc32)C1` [AD79, (R)-tert-butyl 3-(4-amino-3-(4-(3-(3-(trifluoromethyl)phenyl)ureido)phenyl)-1H-pyrazolo[3,4-d]pyrimidin-1-yl)pyrrolidine-1-carboxylate], the IC50 at Abl (Table 1a) is 1000 to 5000 nM; on c-Src (setting [1]), < 1000 nM.

As to `Nc1ncnc2c1c(Cc1cccc(NC(=O)Nc3cccc(C(F)(F)F)c3)c1)nn2C1CCCC1` [BB10, 1-(3-((4-amino-1-cyclopentyl-1H-pyrazolo[3,4-d]pyrimidin-3-yl)methyl)phenyl)-3-(3-(trifluoromethyl)phenyl)urea], the IC50 was 1000 to 5000 nM at Abl (Table 1a), < 1000 nM against T338G Src (Table 1a), < 1000 nM at c-Src (setting [1]) and < 1000 nM against T315A Abl. Further, at c-Src (ratio of IC50 values c-Src vs Abl), the “selectivity towards c-Src over Abl” value is “approximately 5 fold”.

For the compound `CC(C)(C)n1nc(Cc2cccc(NC(=O)c3cccc(C(F)(F)F)c3)c2)c2c(N)ncnc21` [AD25], the concentration for half-maximal inhibition (IC50) was < 1000 nM at T338G Src (Table 1a), 1000 to 5000 nM at c-Src (setting [1]) and < 1000 nM at T315A Abl.

In the case of `Nc1ncnc2c1c(-c1ccc(NC(=O)Nc3cccc(C(F)(F)F)c3)cc1)nn2[C@H]1CCN(C(=O)Nc2cccc(C(F)(F)F)c2)C1` [AD71c, (S)-3-(4-amino-3-(4-(3-(3-(trifluoromethyl)phenyl)ureido)phenyl)-1H-pyrazolo[3,4-d]pyrimidin-1-yl)-N-(3-(trifluoromethyl)phenyl)pyrrolidine-1-carboxamide], the IC50 is > 5000 nM on Abl (Table 1a) and 1000 to 5000 nM at c-Src (setting [1]).

Turning to `Nc1ncnc2c1c(-c1ccc(NC(=O)Nc3cccc(C(F)(F)F)c3)cc1)nn2[C@H]1CCOC1` [AD66, 1-(4-(4-amino-1-((S)-tetrahydrofuran-3-yl)-1H-pyrazolo[3,4-d]pyrimidin-3-yl)phenyl)-3-(3-(trifluoromethyl)phenyl)urea], the IC50 at Abl (Table 1b) and at c-Src (setting [2]) was < 1000 nM throughout.

`Nc1ncnc2c1c(-c1ccc(NC(=O)Nc3cccc(C(F)(F)F)c3)cc1)nn2[C@@H]1CCN(C(=O)Nc2cccc(C(F)(F)F)c2)C1` [AD73c, (R)-3-(4-amino-3-(4-(3-(3-(trifluoromethyl)phenyl)ureido)phenyl)-1H-pyrazolo[3,4-d]pyrimidin-1-yl)-N-(3-(trifluoromethyl)phenyl)pyrrolidine-1-carboxamide]: the IC50 at Abl (Table 1a) was > 5000 nM; on c-Src (setting [1]), 1000 to 5000 nM.

Regarding `Nc1ncnc2c1c(Cc1cccc(NC(=O)Nc3cccc(C(F)(F)F)c3)c1)nn2CC1CC1` [BB14], the 50% inhibitory concentration (IC50) on T338G Src (Table 1a), at c-Src (setting [1]) and on T315A Abl was < 1000 nM each time.

For the compound `Nc1ncnc2c1c(-c1ccc(NC(=O)Nc3cccc(C(F)(F)F)c3)cc1)nn2[C@@H]1CCOC1` [AD69, 1-(4-(4-amino-1-((R)-tetrahydrofuran-3-yl)-1H-pyrazolo[3,4-d]pyrimidin-3-yl)phenyl)-3-(3-(trifluoromethyl)phenyl)urea], the concentration for half-maximal inhibition (IC50) on Abl (Table 1b) was > 5000 nM; at c-Src (setting [2]) it was 1000 to 5000 nM.

`Nc1ncnc2c1c(Cc1cccc(NC(=O)c3cccc(C(F)(F)F)c3)c1)nn2C1CCCC1` [BB9]: the IC50 was < 1000 nM against T338G Src (Table 1a), < 1000 nM on c-Src (setting [1]) and 1000 to 5000 nM against T315A Abl.

For `Nc1ncnc2c1c(-c1ccc(NC(=O)c3cccc(C(F)(F)F)c3)cc1)nn2[C@H]1CCNC1` [AD70, N-(4-(4-amino-1-((S)-pyrrolidin-3-yl)-1H-pyrazolo[3,4-d]pyrimidin-3-yl)phenyl)-3-(trifluoromethyl)benzamide], the concentration for half-maximal inhibition (IC50) at Abl (Table 1b) and at c-Src (setting [2]) was > 5000 nM each time.

With `Cn1nc(Cc2ccc(NC(=O)c3cccc(C(F)(F)F)c3)cc2)c2c(N)ncnc21` [AD7], the IC50 was > 5000 nM on T338G Src (Table 1a), 1000 to 5000 nM on c-Src (setting [1]) and 1000 to 5000 nM on T315A Abl.

For the compound `CC(C)n1nc(-c2cccc(NC(=O)c3cccc(C(F)(F)F)c3)c2)c2c(N)ncnc21` [AD52], the IC50 is < 1000 nM against T338G Src (Table 1b) and 1000 to 5000 nM on c-Src (setting [2]).

For the compound `Nc1ncnc2c1c(-c1ccc(NC(=O)c3cccc(C(F)(F)F)c3)cc1)nn2[C@@H]1CCOC1` [AD68, N-(4-(4-amino-1-((R)-tetrahydrofuran-3-yl)-1H-pyrazolo[3,4-d]pyrimidin-3-yl)phenyl)-3-(trifluoromethyl)benzamide], the IC50 at Abl (Table 1b) and at c-Src (setting [2]) was > 5000 nM throughout.

As to `Nc1ncnc2c1c(Cc1cccc(NC(=O)c3cccc(C(F)(F)F)c3)c1)nn2Cc1ccccc1` [BB5, N-(3-((4-amino-1-benzyl-1H-pyrazolo[3,4-d]pyrimidin-3-yl)methyl)phenyl)-3-(trifluoromethyl)benzamide], the 50% inhibitory concentration (IC50) against T338G Src (Table 1a), on c-Src (setting [1]) and at T315A Abl was 1000 to 5000 nM throughout.

As for `CC(C)n1nc(-c2ccc(NC(=O)c3cccc(C(F)(F)F)c3)cc2)c2c(N)ncnc21` [AD56], the 50% inhibitory concentration (IC50) against T338G Src (Table 1b) is < 1000 nM; at c-Src (setting [2]), 1000 to 5000 nM.

On to `Cn1nc(Cc2ccc(NC(=O)Nc3cccc(C(F)(F)F)c3)cc2)c2c(N)ncnc21` [AD8], for which the 50% inhibitory concentration (IC50) against T338G Src (Table 1a), at c-Src (setting [1]) and against T315A Abl was 1000 to 5000 nM throughout.

A word on the IC50: it is the concentration that inhibits the measured activity by half.
